These are literature values, as cited in publication PMC4284722, “Intrinsic Tryptophan Fluorescence in the Detection and Analysis of Proteins: A Focus on Förster Resonance Energy Transfer Techniques” (International Journal of Molecular Sciences, 2014).

The data set has as its system serum albumin. Also noted: method as in PMID 2313585, PMID 19683079. The settings on record: nonspecific ligand of serum albumin.

Turning to `O=S(=O)(O)c1cccc2cccc(Nc3ccccc3)c12` [ANS, 1-anilinonaphthalene-8-sulfonate], the affinity result was “moderate affinity”.
